Earlier results, collected in patent US6949582B1, “Method of relieving analgesia and reducing inflamation using a cannabinoid delivery topical liniment” (priority 1999, dated 2005).

Legend:
[1] = tested on: peripheral CB1-like and CB2-like receptors; conditions: in vivo
[2] = rat hind-paw edema from carrageenan or PGE-1
peripheral CB1 receptor = molecular target: T1, peripheral CB1 receptor (Rattus norvegicus, UniProt P20272)
T1 construct: host or cells: rat, peripheral tissue (hindpaw) in vivo
T1 sequence (P20272 whole entry): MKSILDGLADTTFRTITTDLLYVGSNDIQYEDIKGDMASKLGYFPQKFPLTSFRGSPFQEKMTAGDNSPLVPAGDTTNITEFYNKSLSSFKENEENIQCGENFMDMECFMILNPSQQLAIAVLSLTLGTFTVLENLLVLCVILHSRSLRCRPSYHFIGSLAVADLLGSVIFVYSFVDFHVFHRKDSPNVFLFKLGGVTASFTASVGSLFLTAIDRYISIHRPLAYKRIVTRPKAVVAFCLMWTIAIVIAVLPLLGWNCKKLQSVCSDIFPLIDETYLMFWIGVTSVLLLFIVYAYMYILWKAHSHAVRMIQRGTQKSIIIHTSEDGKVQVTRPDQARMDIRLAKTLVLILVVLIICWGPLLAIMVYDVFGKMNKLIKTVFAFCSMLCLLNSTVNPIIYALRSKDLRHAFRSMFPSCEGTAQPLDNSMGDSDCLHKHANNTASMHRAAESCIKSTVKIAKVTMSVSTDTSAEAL

[3] = tested on: calcitonin gene-related peptide release; conditions: isolated hindpaw skin
cytokines such as TNFα = conditions: in vivo
[4] = mice, given orally
[5] = tested on: human rheumatoid synovial cells
[6] = tested on: interleukin, TNF, cytokine-induced genes; conditions: carrageenan-induced edema, up-regulation of cytokine-induced genes
[7] = live rats, carriers PEG, Transcutol, PG:EtOH 7:3
[8] = in vivo
CB2 = conditions: by down-modulating mast cell formation after injury
[9] = tested on: prostaglandin biosynthesis
[10] = peripheral, but not systemic, administration of 0.01 ng

Cc1c(C(=O)NN2CCCCC2)nn(-c2ccc(Cl)cc2Cl)c1-c1ccc(Cl)cc1 [SR141716A]
pain behavior produced by chemical damage to cutaneous tissue [1]: prolong and enhance the pain behavior

CC1=CCC2CC1C2(C)C (stereo not drawn) [Alpha-pinene]
anti-inflammatory activity [2]: demonstrate anti-inflammatory activity

caryophyllene
anti-inflammatory activity [2]: demonstrate anti-inflammatory activity

CCCCC/C=C\C/C=C\C/C=C\C/C=C\CCCC(=O)NCCO [anandamide, arachidonyl-ethanolamide]
pain behavior produced by chemical damage to cutaneous tissue [1]: attenuates the pain behavior | hyperalgesia after its development (peripheral CB1 receptor; peripheral administration, reversed by CB1 antagonist SR 141716A): attenuated hyperalgesia | edema (peripheral CB1 receptor; [10]): inhibited edema | induction of hyperalgesia (peripheral CB1 receptor; [10]): inhibited the induction of hyperalgesia | capsaicin-evoked release of calcitonin gene-related peptide [3]: inhibited

CCCCCCC(C)(C)c1cc(O)c2c(c1)OC(C)(C)[C@H]1CC=C(CO)C[C@H]21 [HU-211]
inflammation caused by mobilization of cytokines such as TNFα (cytokines such as TNFα): supress inflammation

CCCCCCC(C)(C)c1cc(O)c2c(c1)OC(C)(C)[C@@H]1CC=C(C(=O)O)C[C@@H]21
acute and chronic inflammatory changes [4]: supresses acute and chronic inflammatory changes

COc1cc(-c2cc(=O)c3c(O)c(C/C=C(\C)CCC=C(C)C)c(O)cc3o2)ccc1O [Cannflavin A]
potency of inhibition of prostaglandin E-2 production relative to aspirin [5]: 30 times

CCCCCc1cc(O)c2c(c1)OC(C)(C)[C@@H]1CCC(C)=C[C@@H]21 [delta-9-tetrahydrocannabinol]
analgesic effects compared with codeine (double blind controlled cross over study): analgesic effects equivalent to codeine | analgesia (patients with cancer pain, second study): significant analgesia

O=c1cc(-c2ccc(O)cc2)oc2cc(O)cc(O)c12 [Apigenin]
anti-inflammatory actions [6]: important anti-inflammatory actions

CCCCCc1cc(O)c2c(c1)OC(C)(C)[C@@H]1CC=C(C)C[C@@H]21 [Delta-8 THC]
skin penetration by carrier ([7]; after 2 hrs): highest skin penetration of THC was observed from the Transcutol | concentration in skin layers by carrier ([7]; after 24 hours): the Transcutol system delivered the highest THC concentration to the various layers of the skin

C=C(C)[C@@H]1CCC(C)=C[C@H]1c1c(O)cc(CCCCC)cc1O [cannabidiol]
neuroprotective properties compared with other antioxidants (cell culture model): matched or surpassed other antioxidants | reduction of inflammation compared with aspirin [8]: more effective than aspirin

CCCCCCCCCCCCCCCC(=O)NCCO [Palmitoylethanolamide, palmitylethanolamide]
pain behavior produced by chemical damage to cutaneous tissue [1]: exerts a similar effect | mast-cell activation and inflammatory responses (mast-cell activation): inhibits mast-cell activation and reduces inflammatory responses | carageenan-induced mechanical hyperalgesia and edema (CB2): attenuates

C=CCc1ccc(O)c(OC)c1 [eugenol]
prostaglandin inhibition [9]: potent

SR144528
pain behavior produced by chemical damage to cutaneous tissue [1]: prolong and enhance the pain behavior

COc1cc(-c2cc(=O)c3c(O)c(CC=C(C)C)c(O)cc3o2)ccc1O [Cannflavin B]
potency of inhibition of prostaglandin E-2 production relative to aspirin [5]: 30 times
